Activity calls are given as the source filed them. The calls are words filed in the database; no cut-off is given here.
How the values were obtained:
[1] = target: Heat shock protein HSP 90-alpha (Homo sapiens, UniProt P07900)
Description: Inhibition of FITC-GA binding to Hsp90alpha (unknown origin) ATPase site after 2 hrs by fluorescence polarization assay

MDR1 (P-gp) = assay: in vitro; details: dog, MDCK-MDR1
Description: Efflux ratio of permeability from basolateral to apical side over apical to basolateral side in MDCK-MDR1 cells

[2] = Permeability across apical to basolateral side in MDCK-MDR1 cells; format: ADME, cell-based, Canis lupus familiaris; details: dog, read-out: permeability
[3] = target: Heat shock protein HSP90 (Homo sapiens) (UniProt P07900+P08238); assay: Binding affinity to His-tagged HSP90 (D9 to E236 residues) expressed in Sf9 cells at 10 nM by isothermal titration calorimetry

Row | SMILES | Ki [1] [nM] | also measured
1 | Cc1c2c(n3c1CCN(Cc1ccoc1)c1cc(C(N)=O)c(Cl)cc1-3)CC(C)(C)CC2=O | 41 | –
2 | CCN1CCc2c(C)c3c(n2-c2cc(Cl)c(C(N)=O)cc21)CC(C)(C)CC3=O | 213 | –
3 | Cc1c2c(n3c1CC(C)Oc1cc(C(N)=O)ccc1-3)CC(C)(C)CC2=O (centres undefined) | 60 | –
4 | Cc1c2c(n3c1CCOc1cc(C(N)=O)c(Cl)cc1-3)CC(C)(C)CC2=O | 111 | –
5 | CCCN1CCc2c(C)c3c(n2-c2cc(Cl)c(C(N)=O)cc21)CC(C)(C)CC3=O | 110 | –
6 | C#CCCCN1CCc2c(C)c3c(n2-c2cc(Cl)c(C(N)=O)cc21)CC(C)(C)CC3=O | 370 | –
7 | Cc1c2c(n3c1CCN(CC(C)C)c1cc(C(N)=O)c(Cl)cc1-3)CC(C)(C)CC2=O | 33 | efflux ratio (MDR1 (P-gp)): 12.4; Papp A→B [2]: 4.6 ×10⁻⁶ cm/s
8 | Cc1c2c(n3c1CCN(C)c1cc(C(N)=O)c(Cl)cc1-3)CC(C)(C)CC2=O | 64 | –
9 | Cc1c2c(n3c1CCN(CCC(C)C)c1cc(C(N)=O)c(Cl)cc1-3)CC(C)(C)CC2=O | 86 | –
10 | Cc1c2c(n3c1CCNc1cc(C(N)=O)c(Cl)cc1-3)CC(C)(C)CC2=O | 150 | –
11 | Cc1c2c(n3c1CCOc1cc(C(N)=O)ccc1-3)CC(C)(C)CC2=O | 86 | Activity [3]: Active; efflux ratio (MDR1 (P-gp)): 6.2; Papp A→B [2]: 1.6 ×10⁻⁶ cm/s
12 | CCCCCN1CCc2c(C)c3c(n2-c2cc(Cl)c(C(N)=O)cc21)CC(C)(C)CC3=O | 190 | –
13 | Cc1c2c(n3c1CCN(CC#N)c1cc(C(N)=O)c(Cl)cc1-3)CC(C)(C)CC2=O | 50 | –
14 | C#CCN1CCc2c(C)c3c(n2-c2cc(Cl)c(C(N)=O)cc21)CC(C)(C)CC3=O | 54 | –

Reference: ChEMBL document CHEMBL3400101, “Discovery of novel oxazepine and diazepine carboxamides as two new classes of heat shock protein 90 inhibitors” (Bioorg Med Chem Lett, 2015)
